Data from patent US9994546B2, “Cyclopropylamines as LSD1 inhibitors” (Incyte Corporation, priority 2014, dated 2018).

molecular target: LSD-1 enzyme (Homo sapiens (Human), UniProt O60341); test: LANCE LSD1/KDM1A demethylase assay (LSD1 histone demethylase biochemical assay); details: 1 nM LSD-1 enzyme, 1 hour preincubation at 25° C., 0.4 μM biotin-labeled Histone H3 peptide substrate
Protocol: LANCE LSD1/KDM1A demethylase assay—10 μL of 1 nM LSD-1 enzyme (ENZO BML-SE544-0050) in the assay buffer (50 mM Tris, pH 7.5, 0.01% Tween-20, 25 mM NaCl, 5 mM DTT) were preincubated for 1 hour at 25° C. with 0.8 μL compound/DMSO dotted in black 384 well polystyrene plates. […] After stopping the reactions plates were incubated for 30 minutes and read on a PHERAstar FS plate reader (BMG Labtech).

SMILES	IC50
CNS(=O)(=O)N1CC(CC#N)(N2CCC(N[C@@H]3C[C@H]3c3ccccc3)CC2)C1 [Example 64, 3-(cyanomethyl)-N-methyl-3-(4-{[(1R,2S)-2-phenylcyclopropyl]amino}piperidin-1-yl)azetidine-1-sulfonamide]	≤ 100 nM
N#CCC1(N2CCC(N[C@@H]3C[C@H]3c3ccccc3)CC2)CN(S(N)(=O)=O)C1 [Example 65, 3-(cyanomethyl)-3-(4-{[(1R,2S)-2-phenylcyclopropyl]amino}piperidin-1-yl)azetidine-1-sulfonamide]	≤ 100 nM
CN1CC(CC(=O)O)(N2CCC(N[C@@H]3C[C@H]3c3ccccc3)CC2)C1 [Example 66, [1-methyl-3-(4-{[(1R,2S)-2-phenylcyclopropyl]amino}piperidin-1-yl)azetidin-3-yl]acetic acid]	≤ 100 nM
CCN1CC(CC(=O)O)(N2CCC(N[C@@H]3C[C@H]3c3ccccc3)CC2)C1 [Example 67, [1-ethyl-3-(4-{[(1R,2S)-2-phenylcyclopropyl]amino}piperidin-1-yl)azetidin-3-yl]acetic acid]	≤ 100 nM
CN(C)C(=O)CC1(N2CCC(N[C@@H]3C[C@H]3c3ccccc3)CC2)CCC1 [Example 68, N,N-dimethyl-2-[1-(4-{[(1R,2S)-2-phenylcyclopropyl]amino}piperidin-1-yl)cyclobutyl]acetamide]	≤ 100 nM
CNC(=O)CC1(N2CCC(N[C@@H]3C[C@H]3c3ccccc3)CC2)CCC1 [Example 69, N-methyl-2-[1-(4-{[(1R,2S)-2-phenylcyclopropyl]amino}piperidin-1-yl)cyclobutyl]acetamide]	≤ 100 nM
CCS(=O)(=O)N1CC(CC(=O)N(C)C)(N2CCC(N[C@@H]3C[C@H]3c3ccccc3)CC2)C1 [Example 70, 2-[1-(ethylsulfonyl)-3-(4-{[(1R,2S)-2-phenylcyclopropyl]amino}piperidin-1-yl)azetidin-3-yl]-N,N-dimethylacetamide]	≤ 100 nM
CCS(=O)(=O)N1CC(CC(=O)NC)(N2CCC(N[C@@H]3C[C@H]3c3ccccc3)CC2)C1 [Example 71, 2-[1-(ethylsulfonyl)-3-(4-{[(1R,2S)-2-phenylcyclopropyl]amino}piperidin-1-yl)azetidin-3-yl]-N-methylacetamide]	≤ 100 nM
N#CCC1(N2CCC(N[C@@H]3C[C@H]3c3ccccc3)CC2)CN([C@H]2CC[C@H](O)CC2)C1 [Example 72, [1-(trans-4-hydroxycyclohexyl)-3-(4-{[(1R,2S)-2-phenylcyclopropyl]amino}piperidin-1-yl)azetidin-3-yl]acetonitrile]	≤ 100 nM
N#CCC1(N2CCC(N[C@@H]3C[C@H]3c3ccccc3)CC2)CN([C@H]2CC[C@@H](O)CC2)C1 [Example 73, [1-(cis-4-hydroxycyclohexyl)-3-(4-{[(1R,2S)-2-phenylcyclopropyl]amino}piperidin-1-yl)azetidin-3-yl]acetonitrile]	≤ 100 nM
N#CCC1(N2CCC(N[C@@H]3C[C@H]3c3ccccc3)CC2)CN(CCO)C1 [Example 74, [1-(2-hydroxyethyl)-3-(4-{[(1R,2S)-2-phenylcyclopropyl]amino}piperidin-1-yl)azetidin-3-yl]acetonitrile]	≤ 100 nM
N#CCC1(N2CCC(N[C@@H]3C[C@H]3c3ccccc3)CC2)CN(C2CCOCC2)C1 [Example 75, [3-(4-{[(1R,2S)-2-phenylcyclopropyl]amino}piperidin-1-yl)-1-(tetrahydro-2H-pyran-4-yl)azetidin-3-yl]acetonitrile]	≤ 100 nM
N#CCC1(N2CCC(N[C@@H]3C[C@H]3c3ccccc3)CC2)CN(C2CCOC2)C1 (stereo partly drawn) [Example 76, [3-(4-{[(1R,2S)-2-phenylcyclopropyl]amino}piperidin-1-yl)-1-(tetrahydrofuran-3-yl)azetidin-3-yl]acetonitrile]	≤ 100 nM
CN(C)C(=O)CN1CC(CC#N)(N2CCC(N[C@@H]3C[C@H]3c3ccccc3)CC2)C1 [Example 77, 2-(3-(cyanomethyl)-3-(4-(((1R,2S)-2-phenylcyclopropyl)amino)piperidin-1-yl)azetidin-1-yl)-N,N-dimethylacetamide]	≤ 100 nM
CNC(=O)CN1CC(CC#N)(N2CCC(N[C@@H]3C[C@H]3c3ccccc3)CC2)C1 [Example 78, 2-[3-(cyanomethyl)-3-(4-{[(1R,2S)-2-phenylcyclopropyl]amino}piperidin-1-yl)azetidin-1-yl]-N-methylacetamide]	≤ 100 nM
N#CCC1(N2CCC(N[C@@H]3C[C@H]3c3ccccc3)CC2)CN(CC(N)=O)C1 [Example 79, 2-[3-(cyanomethyl)-3-(4-{[(1R,2S)-2-phenylcyclopropyl]amino}piperidin-1-yl)azetidin-1-yl]acetamide]	≤ 100 nM

SMILES	IC50
Cn1cc(C(=O)N2CC(CC#N)(N3CCC(N[C@@H]4C[C@H]4c4ccccc4)CC3)C2)cn1 [Example 80, [1-[(1-methyl-1H-pyrazol-4-yl)carbonyl]-3-(4-{[(1R,2S)-2-phenylcyclopropyl]amino}piperidin-1-yl)azetidin-3-yl]acetonitrile]	≤ 100 nM
Cn1nccc1C(=O)N1CC(CC#N)(N2CCC(N[C@@H]3C[C@H]3c3ccccc3)CC2)C1 [Example 81, [1-[(1-methyl-1H-pyrazol-5-yl)carbonyl]-3-(4-{[(1R,2S)-2-phenylcyclopropyl]amino}piperidin-1-yl)azetidin-3-yl]acetonitrile]	≤ 100 nM
N#CCC1(N2CCC(N[C@@H]3C[C@H]3c3ccccc3)CC2)CN(C(=O)[C@H]2CC[C@H](O)CC2)C1 [Example 82, [1-[(trans-4-hydroxycyclohexyl)carbonyl]-3-(4-{[(1R,2S)-2-phenylcyclopropyl]amino}piperidin-1-yl)azetidin-3-yl]acetonitrile]	≤ 100 nM
N#CCC1(N2CCC(N[C@@H]3C[C@H]3c3ccccc3)CC2)CN(C(=O)[C@H]2CC[C@@H](O)CC2)C1 [Example 83, [1-[(cis-4-hydroxycyclohexyl)carbonyl]-3-(4-{[(1R,2S)-2-phenylcyclopropyl]amino}piperidin-1-yl)azetidin-3-yl]acetonitrile]	≤ 100 nM
N#CCC1(N2CCC(N[C@@H]3C[C@H]3c3ccccc3)CC2)CN(C(=O)C2(O)CC2)C1 [Example 84, [1-[(1-hydroxycyclopropyl)carbonyl]-3-(4-{[(1R,2S)-2-phenylcyclopropyl]amino}piperidin-1-yl)azetidin-3-yl]acetonitrile]	≤ 100 nM
N#CCC1(N2CCC(N[C@@H]3C[C@H]3c3ccccc3)CC2)CN(C(=O)C2(O)CCCC2)C1 [Example 85, [1-[(1-hydroxycyclopentyl)carbonyl]-3-(4-{[(1R,2S)-2-phenylcyclopropyl]amino}piperidin-1-yl)azetidin-3-yl]acetonitrile]	≤ 100 nM
N#CCC1(N2CCC(N[C@@H]3C[C@H]3c3ccccc3)CC2)CN(C(=O)N2CCOCC2)C1 [Example 86, [1-(morpholin-4-ylcarbonyl)-3-(4-{[(1R,2S)-2-phenylcyclopropyl]amino}piperidin-1-yl)azetidin-3-yl]acetonitrile]	≤ 100 nM
N#CCC1(N2CCC(N[C@@H]3C[C@H]3c3ccccc3)CC2)CN(C(=O)N2CCC(O)CC2)C1 [Example 87, [1-[(4-hydroxypiperidin-1-yl)carbonyl]-3-(4-{[(1R,2S)-2-phenylcyclopropyl]amino}piperidin-1-yl)azetidin-3-yl]acetonitrile]	≤ 100 nM
COC1CCN(C(=O)N2CC(CC#N)(N3CCC(N[C@@H]4C[C@H]4c4ccccc4)CC3)C2)CC1 [Example 88, [1-[(4-methoxypiperidin-1-yl)carbonyl]-3-(4-{[(1R,2S)-2-phenylcyclopropyl]amino}piperidin-1-yl)azetidin-3-yl]acetonitrile]	≤ 100 nM
N#CCC1(N2CCC(N[C@@H]3C[C@H]3c3ccccc3)CC2)CN(C(=O)N2CC(O)C2)C1 [Example 89, [1-[(3-hydroxyazetidin-1-yl)carbonyl]-3-(4-{[(1R,2S)-2-phenylcyclopropyl]amino}piperidin-1-yl)azetidin-3-yl]acetonitrile]	≤ 100 nM
CN(C)C(=O)CC1(N2CCC(N[C@@H]3C[C@H]3c3ccccc3)CC2)CN(S(C)(=O)=O)C1 [Example 90, N,N-dimethyl-2-(1-(methylsulfonyl)-3-(4-(((1R,2S)-2-phenylcyclopropyl)amino)piperidin-1-yl)azetidin-3-yl)acetamide]	≤ 100 nM
CNC(=O)CC1(N2CCC(N[C@@H]3C[C@H]3c3ccccc3)CC2)CN(S(C)(=O)=O)C1 [Example 91, N-methyl-2-[1-(methylsulfonyl)-3-(4-{[(1R,2S)-2-phenylcyclopropyl]amino}piperidin-1-yl)azetidin-3-yl]acetamide]	≤ 100 nM
CCS(=O)(=O)N1CC(CCO)(N2CCC(N[C@@H]3C[C@H]3c3ccccc3)CC2)C1 [Example 92, 2-[1-(ethylsulfonyl)-3-(4-{[(1R,2S)-2-phenylcyclopropyl]amino}piperidin-1-yl)azetidin-3-yl]ethanol]	≤ 100 nM
CS(=O)(=O)N1CC(CCO)(N2CCC(N[C@@H]3C[C@H]3c3ccccc3)CC2)C1 [Example 93, 2-[1-(methylsulfonyl)-3-(4-{[(1R,2S)-2-phenylcyclopropyl]amino}piperidin-1-yl)azetidin-3-yl]ethanol]	≤ 100 nM
COC(=O)N1CC(CC(=O)N(C)C)(N2CCC(N[C@@H]3C[C@H]3c3ccccc3)CC2)C1 [Example 94, methyl 3-[2-(dimethylamino)-2-oxoethyl]-3-(4-{[(1R,2S)-2-phenylcyclopropyl]amino}piperidin-1-yl)azetidine-1-carboxylate]	≤ 100 nM
CNC(=O)CC1(N2CCC(N[C@@H]3C[C@H]3c3ccccc3)CC2)CN(C(=O)OC)C1 [Example 95, methyl 3-[2-(methylamino)-2-oxoethyl]-3-(4-{[(1R,2S)-2-phenylcyclopropyl]amino}piperidin-1-yl)azetidine-1-carboxylate]	≤ 100 nM
